Experimental data as given in US5686424A, “2-oxoethyl derivatives as immunosuppressants” (Miles Inc., priority 1995, dated 1997).
pIC50: −log10 of the molar value. Where two headings read alike, the source gives them in different places.

Columns and labels:
FKBP = FKBP (Homo sapiens, UniProt P62942); assay: PPIase Inhibition Assay; format: biochemical
Description: 1) Inhibition of PPIase Activity
This assay follows in principle the procedure described in Kofron et al., 1991, Biochemistry 30:6127.
The three main reagents used are PPIase, a substrate for PPIase, and a selected inhibitor compound of the present invention. The basic principle behind this assay is the conversion of the cis isomer of the substrate to the trans form, which conversion is catalyzed by PPIase. Essentially, inhibition of this PPIase activity is measured for the selected compounds. A peptide chymotrypsin substrate containing a proline in the P2 position is only cleaved by chymotrypsin when the Phe-Pro bond is in the trans isomeric configuration. In the presence of excess chymotrypsin, all of the trans peptide isomers are cleaved within approximately five seconds, leaving only cis forms.
The cis peptide will spontaneously convert to the trans isomer at a slow rate. The cis to trans conversion is catalyzed by isomerases at a much faster rate than this spontaneous conversion. Proteins with PPIase activity are examples of such isomerases. After isomerization, the peptide is cleaved by chymotrypsin releasing p-nitroaniline which can be monitored at 390 nm. The rate of release is then calculated using a first order rate plus offset equation utilizing the ENZFITTER program (Leatherbarrow, BIOSOFT, Cambridge, United Kingdom).
In a plastic cuvette are added 950 ul of ice cold assay buffer (25 mM HEPES, pH 7.8, 100 mM NaCl), 10 uL of FKBP (2.5 uM in 10 mM Tris-Cl pH 7.5, 100 mM NaCl, 1 mM dithiothreitol), 25 ul of chymotrypsin (50 mg/ml in 1 mM HCl) and 10 ul of the test compound at various concentrations in dimethyl sulphoxide. The reaction is initiated by addition of 5 ul of substrate (Succinyl-Ala-Phe-Pro-Phe-para-nitroanilide, 5 mg/ml in 235 mM LiCl in trifluoroethanol).
The absorbance at 390 nm versus time is monitored for 90 sec using a Beckman DU70 spectrophotometer. The absorbance versus time data files are transferred to an IBM XT computer and the rate constants determined using the commercial enzfitter program. For each set of data, the uncatalyzed rate of conversion is measured and the uninhibited enzymatic rate determined. The data are expressed as % Activity remaining and are calculated as follows:
% Activity Remaining=(kobs -kuncat)/(kuninh
where kobs is the rate in the presence of a selected test compound, kuncat is the rate in the absence of enzyme, and kuninh is the rate in the presence of enzyme
Data was plotted as the velocity in the absence of the inhibitor (V-) divided by the velocity in the presence of inhibitor (V+) versus the inhibitor concentration. The IC50 can be determined following linear regression as the inhibitor concentration where

human T-cells = assay: Suppression of Human T-Cell Proliferation Assay (PHA-stimulated, [3H]-thymidine incorporation); format: cell-based; details: read-out: IC50
From the text: 2) Human T Lymphocyte Inhibition
Inhibition of mitogen-induced T-cell proliferation can be used to profile immunosuppressive activity of test compounds. In the description of the assay which follows, mitogen-induced T-cell activation was used to test the inhibitory potencies of select compounds of the present invention.
In an assay similar to that described by Bradley in Mishell et al. (Eds.), 1980, Selected Methods in Cellular Immunology, pp 156-161, W. H. Freeman & Co., San Fransisco, Calif., T-cells were stimulated by incubation with phytohemagglutinin (PHA) which binds to cell surface molecules, including the T-cell receptor. This stimulation results in proliferation which can be measured by incorporation of [^3 H]-thymidine into cellular DNA.
The immunosuppressive properties of the compounds of the present invention can be determined by adding various concentrations of the compounds to these cultures and measuring the effect on T-cell proliferation.
Suppression of Human T-Cell Proliferation Assay
Fresh LeukoPaks were obtained from the New York Blood Center, New York, N.Y. The cells, including erythrocytes and leukocytes, were diluted with Hank's Balanced Salt Solution (HBSS) (GIBCO, Grand Island, N.Y.) and layered over Lymphoprep (Nycomed Pharma AS, Oslo, Norway) in sterile 50 ml conical centrifuge tubes. Lymphocytes were isolated at the Hank's/Nycomed interface after centrifugation at 2000×g, 4° C. for 15 min. The lymphocytes were washed with Minimal Essential Medium (GIBCO) containing 2% fetal bovine serum (FBS) (Sigma Chemical Co., St. Louis, Mo.), 1% HEPES buffer (GIBCO) and 1% Penicillin-Stretomycin solution (GIBCO).
T-cells were further purified essentially by sheep erythrocyte (SRBC) rosetting as described by Morimoto et al., 1983, J. Immunol. 130:157. The isolated lymphocytes were adjusted to 2×10^7 cells/ml and 5 ml aliquots of the cell suspension were incubated for 10 minutes at room temperature with 5 ml of a 5% SRBC (Cappel, Organon Technika Corp., West Chester, Pa.) suspension. The cells were gently pelleted by centrifugation at 300 rpm for 10 minutes, followed by a 1 hour incubation at room temperature to allow rosette formation. The cells were gently resuspended,layered over Lymphoprep and centrifuged for 30 minutes at 500×g. The pellet, containing rosetted T-cells and SRBC was treated with ice cold buffered ammonium chloride (GIBCO) to lyse the erythrocytes. T-cells were washed twice with HBSS.
Purified T-cells were resuspended at 2×10^6 cells/ml in complete culture medium composed of RPMI-1640 (Whittaker Bioproducts, Walkerville, Md.) with 10% FBS (Sigma), 2 mM L-glutamine (GIBCO), 1% Penicillin-Streptomycin (GIBCO) and 15 mM HEPES (GIBCO). In 96-well plates (Becton Dickinson, Lincoln Park, N.J.), 0.1 ml aliquots of T-cell suspension were mixed with 0.05 ml of 40 μg/ml PHA-M (Sigma). The compounds of this invention were dissolved in dimethylsulfoxide at 10 mM and various dilutions in complete medium were added in duplicate wells (0.05 ml/well). The plates were incubated at 37° C. in a humidified atmosphere of 5% carbon dioxide and 95% air for 72 hours.
Proliferation was assessed by measurement of [^3 H]-thymidine incorporation. During the last 6 hours of incubation, the cells were pulse labelled with 1 μCi/well of [^3 H]-thymidine (New England Nuclear, Boston, Mass.). The cells were harvested onto glass fiber paper using a plate harvester and the radioactivity incorporated into cellular DNA corresponding to individual wells was measured by standard liquid scintillation counting methods.

[1] = concentration of inhibitor required for 50% inhibition of enzyme activity, FKBP, substrate Succinyl-Ala-Phe-Pro-Phe-para-nitroanilide, TABLE I
[2] = concentration inhibiting [3H]-thymidine incorporation of PHA-stimulated T-cells by 50%, 72 hours, TABLE 2

FKBP, sequence (P62942 whole entry): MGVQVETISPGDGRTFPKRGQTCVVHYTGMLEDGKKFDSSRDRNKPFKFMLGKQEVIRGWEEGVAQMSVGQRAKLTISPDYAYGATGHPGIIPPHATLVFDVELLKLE

Row | SMILES | pIC50 (FKBP; [1]) | pIC50 (human T-cells; [2]) | pIC50 (FKBP) | pIC50 (human T-cells)
1 | CC[C@H](C)[C@H](NC(=O)[C@@H]1CCCN1CC(=O)OC)C(=O)NCc1ccccc1 [Example 6, L-Isoleucine, N-[1-(2-Methoxy-2-Oxoethyl)-L-Prolyl] Benzylamide] | – | – | > 4.30 | –
2 | CC[C@H](C)[C@H](NC(=O)[C@@H]1CCCN1CC(=O)c1ccc(-c2ccccc2)cc1)C(=O)NCc1ccccc1 [Example 9, L-Isoleucine, N-[1-(2-(Biphenyl-4-yl)-2-Oxoethyl)-L-Prolyl] Benzylamide] | – | – | > 4.30 | 4.30
3 | CC[C@H](C)[C@@H](C(=O)NCc1ccccc1)N(C)C(=O)[C@@H]1CCCN1CC(=O)c1ccccc1 [Example 16, L-Isoleucine, N-Methyl-N-[1-(2-Phenyl-2-Oxoethyl)-L-Prolyl] Benzylamide] | < 4.30 | < 4.30 | – | –
4 | CC[C@H](C)[C@H](NC(=O)[C@@H]1CCCN1CC(=O)c1ccc(-c2ccccc2)cc1)C(=O)N1CCc2ccccc2C1 [Example 50, L-Isoleucine, N-[1-(2-(Biphenyl-4-yl)-2-Oxoethyl)-L-Prolyl] 1,2,3,4-Tetrahydroisoquinolinamide] | – | – | 4.30 | –
5 | CC[C@H](C)[C@H](NC(=O)[C@@H]1CCCN1CC(=O)c1ccc(-c2ccccc2)cc1)C(=O)OCc1ccccc1 [Example 51, L-Isoleucine, N-[1-(2-(Biphenyl-4-yl)-2-Oxoethyl)-L-Prolyl] Benzyl Ester] | – | – | < 4.30 | –
6 | CSCC[C@H](NC(=O)[C@@H]1CCCN1CC(=O)c1ccc(-c2ccccc2)cc1)C(=O)NCc1ccccc1 [Example 54, L-Methionine, N-[1-(2-(Biphenyl-4-yl)-2-Oxoethyl)-L-Prolyl] Benzylamide] | – | – | < 4.30 | –
7 | CCOC(=O)C1CCCN(C(=O)CN2CCC[C@H]2C(=O)N[C@H](C(=O)NCc2ccccc2)[C@@H](C)CC)C1 (stereo partly drawn) [Example 72, L-Isoleucine, N-[1-[2-[N-(Piperidine-3-Carboxylic Acid Ethyl Ester)]-2-Oxoethyl]-L-Prolyl] Benzylamide] | > 5.30 | – | – | –
8 | CC[C@H](C)[C@H](NC(=O)[C@@H]1CCCN1CC(=O)NCc1ccccc1)C(=O)NCc1ccccc1 [Example 80, L-Isoleucine, N-[1-[2-(N-(Phenylmethylamino))-2-Oxoethyl]-L-Prolyl] Benzylamide] | < 5.30 | – | – | –
9 | CC[C@H](C)[C@H](NC(=O)[C@@H]1CCCN1CC(=O)NCC1CCCCC1)C(=O)NCc1ccccc1 [Example 81, L-Isoleucine, N-[1-[2-(N-(Cyclohexylmethylamino))-2-Oxoethyl]-L-Prolyl] Benzylamide] | < 5.30 | – | – | –

The next lines start with results.

Row | pIC50 (FKBP; [1]) | SMILES | pIC50 (human T-cells; [2]) | pIC50 (FKBP) | pIC50 (human T-cells)
10 | 5.24 | C/C=C/C=C/COC(=O)CN1CCC[C@H]1C(=O)N[C@H](C(=O)NCc1ccccc1)[C@@H](C)CC (relative stereo) [Example 12, L-Isoleucine, N-[1-(2-(trans,trans-Hexa-2,4-dienyl-1-oxy)-2-Oxoethyl)-L-Prolyl] Benzylamide] | 4.46 | – | –
11 | 5.66 | CC[C@H](C)[C@H](NC(=O)[C@@H]1CCCN1CC(=O)OCc1ccccc1)C(=O)NCc1ccccc1 [Example 5, L-Isoleucine, N-[1-(2-Benzyloxy-2-Oxoethyl)-L-Prolyl] Benzylamide] | – | – | –
12 | 5.57 | CC[C@H](C)[C@H](NC(=O)[C@@H]1CCCN1CC(=O)c1ccccc1)C(=O)NCc1ccccc1 [Example 7, L-Isoleucine, N-[1-(2-Phenyl-2-Oxoethyl)-L-Prolyl] Benzylamide] | > 4.30 | – | –
13 | 5.47 | CC[C@H](C)[C@H](NC(=O)[C@@H]1CCCN1CC(=O)c1ccc2ccccc2c1)C(=O)NCc1ccccc1 [Example 8, L-Isoleucine, N-[1-(2-Naphth-2-yl-2-Oxoethyl)-L-Prolyl] Benzylamide] | 4.30 | – | –
14 | 4.30 | CC[C@H](C)[C@H](NC(=O)[C@@H]1CCCN1CC(=O)c1sc2ccc(Cl)cc2c1C)C(=O)NCc1ccccc1 [Example 11, L-Isoleucine, N-[1-(2-(5-Chloro-3-Methyl-benzo[B]thiophene-2-yl)-2-Oxoethyl)-L-Prolyl] Benzylamide] | 4.47 | – | –
15 | > 4.30 | CC[C@H](C)[C@H](NC(=O)[C@@H]1CCCN1CC(=O)c1ccc(Cl)cc1)C(=O)NCc1ccccc1 [Example 13, L-Isoleucine, N-[1-(2-(4-Chlorophenyl)-2-Oxoethyl)-L-Prolyl] Benzylamlde] | < 4.30 | – | –
16 | > 4.30 | CC[C@H](C)[C@H](NC(=O)[C@@H]1CCCN1CC(=O)c1ccc(C)cc1)C(=O)NCc1ccccc1 [Example 14, L-Isoleucine, N-[1-(2-(4-Methylphenyl)-2-Oxoethyl)-L-Prolyl] Benzylamide] | < 4.30 | – | –
17 | > 4.30 | CC[C@H](C)[C@H](NC(=O)[C@@H]1CCCN1CC(=O)c1ccc(OC)cc1)C(=O)NCc1ccccc1 [Example 15, L-Isoleucine, N-[1-(2-(4-Methoxylphenyl)-2-Oxoethyl)-L-Prolyl] Benzylamide] | 4.77 | – | –
18 | > 4.30 | CC[C@H](C)[C@H](NC(=O)[C@@H]1CCCN1CC(=O)c1ccc(OC)cc1OC)C(=O)NCc1ccccc1 [Example 28, L-Isoleucine, N-[1-(2-(2,4-Dimethoxyphenyl)-2-Oxoethyl)-L-Prolyl] Benzylamide] | – | – | –
19 | > 4.30 | CC[C@H](C)[C@H](NC(=O)[C@@H]1CCCN1CC(=O)c1ccccc1[N+](=O)[O-])C(=O)NCc1ccccc1 [Example 29, L-Isoleucine, N-[1-(2-(2-Nitrophenyl)-2-Oxoethyl)-L-Prolyl] Benzylamide] | – | – | –
20 | > 4.30 | CC[C@H](C)[C@H](NC(=O)[C@@H]1CCCN1CC(=O)c1ccc([N+](=O)[O-])cc1)C(=O)NCc1ccccc1 [Example 30, L-Isoleucine, N-[1-(2-(4-Nitrophenyl)-2-Oxoethyl)-L-Prolyl] Benzylamide] | – | – | –
21 | < 5.30 | CC[C@H](C)[C@H](NC(=O)[C@@H]1CCCN1CC(=O)NC1CCCC1)C(=O)NCc1ccccc1 [Example 79, L-Isoleucine, N-[1-[2-(N-Cyclopentylamino)-2-Oxoethyl]-L-Prolyl] Benzylamide] | – | – | –
